Assay results: patent publication US20100267561A1, “HERBICIDAL PYRIDAZINONE DERIVATIVES” (priority 2007, published 2010)

Experiments:
Type in all cases: in vivo
[1] = tested on: umbrella sedge (Cyperus difformis); test: Test B flooded paddy test plant response
How it was run: (§1)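 2-leaf plants; pots flooded 3 cm above soil; compound added to paddy water; depth maintained. Greenhouse 13–15 d. Visual rating vs controls, 0 (no effect) to 100 (complete control); dash = no result.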

[2] = tested on: ducksalad (Heteranthera limosa); test: Test B flooded paddy test plant response
How it was run: as §1

[3] = tested on: rice (Oryza sativa); test: Test B flooded paddy test plant response
How it was run: as §1

[4] = tested on: barnyardgrass (Echinochloa crus-galli); test: Test B flooded paddy test plant response
How it was run: as §1

[5] = tested on: woolly cupgrass (Eriochloa villosa); test: Test B pre-/postemergence plant response; details: for Cupgrass, Woolly plant response rating: 8 g ai/ha
How it was run: (§2)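 Visual scoring from 0 (no effect) to 100 (complete control) against untreated controls was done 13 to 15 days after greenhouse treatment. Chemicals were formulated in a surfactant-containing non-phytotoxic solvent and applied to soil preemergence or to 1- to 4-leaf (2-18 cm) plants postemergence.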

[6] = tested on: wheat (Triticum aestivum); test: Test B pre-/postemergence plant response
How it was run: as §2

[7] = tested on: downy bromegrass (Bromus tectorum); test: Test B pre-/postemergence plant response; details: for Bromegrass, Downy plant response rating: 8 g ai/ha
How it was run: as §2

[8] = tested on: catchweed bedstraw (Galium aparine); test: Test B pre-/postemergence plant response; details: Preemergence
How it was run: as §2

[9] = tested on: bermudagrass (Cynodon dactylon); test: Test B pre-/postemergence plant response; details: for Bermudagrass plant response rating: 8 g ai/ha
How it was run: as §2

[10] = tested on: cocklebur (Xanthium strumarium); test: Test B pre-/postemergence plant response; details: for Cocklebur plant response rating: 8 g ai/ha
How it was run: as §2

[11] = tested on: wild oat (Avena fatua); test: Test B pre-/postemergence plant response
How it was run: as §2

[12] = tested on: velvetleaf (Abutilon theophrasti); test: Test B pre-/postemergence plant response
How it was run: as §2

[13] = tested on: large crabgrass (Digitaria sanguinalis); test: Test B pre-/postemergence plant response
How it was run: as §2

[14] = tested on: soybean (Glycine max); test: Test B pre-/postemergence plant response
How it was run: as §2

[15] = Flood (flooded paddy test), 62 g ai/ha, scale 0 to 100, 0 no effect, 100 complete control
[16] = Flood (flooded paddy test), 125 g ai/ha, scale 0 to 100, 0 no effect, 100 complete control
[17] = Flood (flooded paddy test), 250 g ai/ha, scale 0 to 100, 0 no effect, 100 complete control
[18] = Flood, 31 g ai/ha, scale 0 to 100
[19] = Postemergence, 16 g ai/ha, scale 0 to 100
[20] = Postemergence, 31 g ai/ha, scale 0 to 100, 0 no effect, 100 complete control
[21] = Postemergence, 62 g ai/ha, scale 0 to 100, 0 no effect, 100 complete control
[22] = Preemergence, 16 g ai/ha, scale 0 to 100 (0 no effect, 100 complete control)
[23] = Preemergence, 31 g ai/ha, 0 to 100 scale, 0 no effect, 100 complete control
[24] = Preemergence, 62 g ai/ha, scale 0 to 100
[25] = 8 g ai/ha, postemergence, 0-100 scale
[26] = Preemergence, 8 g ai/ha, scale 0 to 100
[27] = Preemergence, scale 0 to 100 (0 no effect, 100 complete control)
[28] = Postemergence, 31 g ai/ha, scale 0 to 100
[29] = Preemergence, 31 g ai/ha, scale 0 to 100 (0 no effect, 100 complete control)
[30] = Preemergence, 62 g ai/ha, 0 to 100 scale, 0 no effect, 100 complete control
[31] = 16 g ai/ha, postemergence, 0-100 scale
[32] = Preemergence, 16 g ai/ha, scale 0 to 100

Cc1cc(-c2ccc(Cl)cc2)nn1-c1c(OC(=O)c2cccc(Cl)c2)cnn(C)c1=O [Compound 32]
Plant response rating, Sedge, Umbrella [1, 15]: 30
Plant response rating, Sedge, Umbrella [1, 16]: 30
Plant response rating, Sedge, Umbrella [1, 17]: 30
Plant response rating, Sedge, Umbrella [1, 18]: 20
Plant response rating, Ducksalad [2, 15]: 30
Plant response rating, Ducksalad [2, 16]: 40
Plant response rating, Ducksalad [2, 17]: 40
Plant response rating, Ducksalad [2, 18]: 30
Plant response rating, Rice [3, 15]: 0
Plant response rating, Rice [3, 16]: 30
Plant response rating, Rice [3, 17]: 65
Plant response rating, Rice [3, 18]: 0
Plant response rating, Barnyardgrass [4, 15]: 20
Plant response rating, Barnyardgrass [4, 16]: 65
Plant response rating, Barnyardgrass [4, 17]: 70
Plant response rating, Barnyardgrass [4, 18]: 10
Cupgrass, Woolly plant response rating ([5]; postemergence, 0-100 scale): 75
Plant response rating, Cupgrass, Woolly [5, 19]: 85
Plant response rating, Cupgrass, Woolly [5, 20]: 100
Plant response rating, Cupgrass, Woolly [5, 21]: 100
Plant response rating, Cupgrass, Woolly [5, 22]: 70
Plant response rating, Cupgrass, Woolly [5, 23]: 80
Plant response rating, Cupgrass, Woolly [5, 24]: 85
Cupgrass, Woolly plant response rating ([5]; Preemergence, scale 0 to 100): 55
Wheat plant response rating [6, 25]: 0
Plant response rating, Wheat [6, 19]: 30
Plant response rating, Wheat [6, 22]: 0
Plant response rating, Wheat [6, 23]: 20
Plant response rating, Wheat [6, 24]: 70
Wheat plant response rating [6, 26]: 0
Bromegrass, Downy plant response rating ([7]; postemergence, 0-100 scale): 5
Plant response rating, Bromegrass, Downy [7, 19]: 10
Plant response rating, Bromegrass, Downy [7, 20]: 45
Plant response rating, Bromegrass, Downy [7, 21]: 60
Plant response rating, Bromegrass, Downy [7, 22]: 0
Plant response rating, Bromegrass, Downy [7, 23]: 0
Plant response rating, Bromegrass, Downy [7, 24]: 75
Bromegrass, Downy plant response rating ([7]; Preemergence, scale 0 to 100): 0
Plant response rating, Galium ([8]; 16 g ai/ha, scale 0 to 100 (0 no effect, 100 complete control)): 0
Plant response rating, Galium ([8]; 31 g ai/ha, 0 to 100 scale, 0 no effect, 100 complete control): 0
Plant response rating, Galium ([8]; 62 g ai/ha, scale 0 to 100): 0
Galium plant response rating ([8]; 8 g ai/ha, scale 0 to 100): 0
Bermudagrass plant response rating ([9]; postemergence, 0-100 scale): 60
Plant response rating, Bermudagrass [9, 19]: 65
Plant response rating, Bermudagrass [9, 20]: 100
Plant response rating, Bermudagrass [9, 21]: 100
Bermudagrass plant response rating [9, 27]: 0
Plant response rating, Bermudagrass [9, 22]: 0
Plant response rating, Bermudagrass [9, 23]: 0
Plant response rating, Bermudagrass [9, 24]: 0
Cocklebur plant response rating ([10]; postemergence, 0-100 scale): 0
Plant response rating, Cocklebur [10, 19]: 0
Plant response rating, Cocklebur [10, 20]: 0
Plant response rating, Cocklebur [10, 21]: 0
Plant response rating, Cocklebur [10, 22]: 0
Plant response rating, Cocklebur [10, 23]: 0
Plant response rating, Cocklebur [10, 24]: 0
Cocklebur plant response rating ([10]; Preemergence, scale 0 to 100): 0
Oat, Wild plant response rating [11, 25]: 60
Plant response rating, Oat, Wild [11, 19]: 85
Plant response rating, Oat, Wild [11, 20]: 95
Plant response rating, Oat, Wild [11, 21]: 95
Plant response rating, Oat, Wild [11, 22]: 0
Plant response rating, Oat, Wild [11, 23]: 60
Plant response rating, Oat, Wild [11, 24]: 80
Oat, Wild plant response rating [11, 26]: 0
Velvetleaf plant response rating [12, 25]: 0
Plant response rating, Velvetleaf [12, 19]: 0
Plant response rating, Velvetleaf [12, 21]: 0
Plant response rating, Velvetleaf [12, 22]: 0
Plant response rating, Velvetleaf [12, 23]: 0
Plant response rating, Velvetleaf [12, 24]: 0
Velvetleaf plant response rating [12, 26]: 0
Crabgrass, Large plant response rating [13, 25]: 60
Plant response rating, Crabgrass, Large [13, 19]: 85
Plant response rating, Crabgrass, Large [13, 20]: 95
Plant response rating, Crabgrass, Large [13, 21]: 98
Plant response rating, Crabgrass, Large [13, 22]: 85
Plant response rating, Crabgrass, Large [13, 23]: 100
Plant response rating, Crabgrass, Large [13, 24]: 100
Crabgrass, Large plant response rating [13, 26]: 20
Soybean plant response rating [14, 25]: 0
Plant response rating, Soybean [14, 19]: 0
Plant response rating, Soybean [14, 21]: 0
Plant response rating, Soybean [14, 22]: 0
Plant response rating, Soybean [14, 23]: 0
Plant response rating, Soybean [14, 24]: 0
Soybean plant response rating [14, 26]: 0

CCCc1cc(-c2ccc(C(F)(F)F)cc2)nn1-c1c(O)cnn(C)c1=O [Compound 72]
Plant response rating, Sedge, Umbrella [1, 15]: 0
Plant response rating, Sedge, Umbrella [1, 16]: 60
Plant response rating, Sedge, Umbrella [1, 17]: 65
Plant response rating, Sedge, Umbrella [1, 18]: 0
Plant response rating, Ducksalad [2, 15]: 0
Plant response rating, Ducksalad [2, 16]: 0
Plant response rating, Ducksalad [2, 17]: 40
Plant response rating, Ducksalad [2, 18]: 0
Plant response rating, Rice [3, 15]: 15
Plant response rating, Rice [3, 16]: 45
Plant response rating, Rice [3, 17]: 65
Plant response rating, Rice [3, 18]: 10
Plant response rating, Barnyardgrass [4, 15]: 20
Plant response rating, Barnyardgrass [4, 16]: 40
Plant response rating, Barnyardgrass [4, 17]: 70
Plant response rating, Barnyardgrass [4, 18]: 0
Cupgrass, Woolly plant response rating ([5]; postemergence, 0-100 scale): 55
Plant response rating, Cupgrass, Woolly [5, 19]: 80
Plant response rating, Cupgrass, Woolly [5, 28]: 90
Plant response rating, Cupgrass, Woolly [5, 21]: 90
Plant response rating, Cupgrass, Woolly [5, 29]: 85
Plant response rating, Cupgrass, Woolly [5, 30]: 100
Cupgrass, Woolly plant response rating ([5]; Preemergence, scale 0 to 100): 70
Wheat plant response rating [6, 25]: 85
Wheat plant response rating [6, 31]: 85
Plant response rating, Wheat [6, 28]: 85
Plant response rating, Wheat [6, 21]: 95
Plant response rating, Wheat [6, 29]: 80
Plant response rating, Wheat [6, 30]: 90
Wheat plant response rating [6, 32]: 35
Bromegrass, Downy plant response rating ([7]; postemergence, 0-100 scale): 20
Plant response rating, Bromegrass, Downy [7, 19]: 30
Plant response rating, Bromegrass, Downy [7, 28]: 30
Plant response rating, Bromegrass, Downy [7, 21]: 30
Plant response rating, Bromegrass, Downy [7, 22]: 30
Plant response rating, Bromegrass, Downy [7, 29]: 50
Plant response rating, Bromegrass, Downy [7, 30]: 95
Bromegrass, Downy plant response rating ([7]; Preemergence, scale 0 to 100): 0
Plant response rating, Galium ([8]; 31 g ai/ha, scale 0 to 100 (0 no effect, 100 complete control)): 0
Plant response rating, Galium ([8]; 62 g ai/ha, 0 to 100 scale, 0 no effect, 100 complete control): 0
Galium plant response rating ([8]; 8 g ai/ha, scale 0 to 100): 0
Galium plant response rating ([8]; 16 g ai/ha, scale 0 to 100): 0
Bermudagrass plant response rating ([9]; postemergence, 0-100 scale): 0
Plant response rating, Bermudagrass [9, 19]: 50
Plant response rating, Bermudagrass [9, 28]: 60
Plant response rating, Bermudagrass [9, 21]: 80
Bermudagrass plant response rating [9, 27]: 40
Plant response rating, Bermudagrass [9, 22]: 100
Plant response rating, Bermudagrass [9, 29]: 100
Plant response rating, Bermudagrass [9, 30]: 100
Cocklebur plant response rating ([10]; postemergence, 0-100 scale): 0
Plant response rating, Cocklebur [10, 19]: 0
Plant response rating, Cocklebur [10, 28]: 0
Plant response rating, Cocklebur [10, 21]: 0
Plant response rating, Cocklebur [10, 22]: 0
Plant response rating, Cocklebur [10, 29]: 0
Plant response rating, Cocklebur [10, 30]: 0
Cocklebur plant response rating ([10]; Preemergence, scale 0 to 100): 0
Oat, Wild plant response rating [11, 25]: 100
Oat, Wild plant response rating [11, 31]: 100
Plant response rating, Oat, Wild [11, 28]: 100
Plant response rating, Oat, Wild [11, 21]: 100
Plant response rating, Oat, Wild [11, 29]: 95
Plant response rating, Oat, Wild [11, 30]: 98
Oat, Wild plant response rating [11, 26]: 60
Oat, Wild plant response rating [11, 32]: 80
Velvetleaf plant response rating [12, 25]: 0
Velvetleaf plant response rating [12, 31]: 0
Plant response rating, Velvetleaf [12, 28]: 0
Plant response rating, Velvetleaf [12, 21]: 0
Plant response rating, Velvetleaf [12, 29]: 0
Plant response rating, Velvetleaf [12, 30]: 0
Velvetleaf plant response rating [12, 26]: 0
Velvetleaf plant response rating [12, 32]: 0
Crabgrass, Large plant response rating [13, 25]: 95
Plant response rating, Crabgrass, Large [13, 19]: 100
Plant response rating, Crabgrass, Large [13, 28]: 100
Plant response rating, Crabgrass, Large [13, 21]: 100
Plant response rating, Crabgrass, Large [13, 29]: 80
Plant response rating, Crabgrass, Large [13, 30]: 100
Crabgrass, Large plant response rating [13, 26]: 30
Crabgrass, Large plant response rating [13, 32]: 50
Soybean plant response rating [14, 25]: 0
Soybean plant response rating [14, 31]: 0
Plant response rating, Soybean [14, 28]: 0
Plant response rating, Soybean [14, 21]: 0
Plant response rating, Soybean [14, 29]: 0
Plant response rating, Soybean [14, 30]: 0
Soybean plant response rating [14, 26]: 0
Soybean plant response rating [14, 32]: 0
